# Where a name gives a salt, the structure may show the parent alone. Read-outs that look alike come from different tables or passages of the source.
# Experiments:
# Format in all cases: cell-based
# CD4 T cells = assay: CD69 expression on aCD3/aCD28 stimulated isolated human CD4 T cells (flow cytometry); settings: 24 h after TCR stimulation, read-out: Activity Class CD69 (CD4)
# Procedure: (§1) Isolated T cells were plated in Xvivo medium at 1.5*10 ^5 cells per in 96 well culture plates and TCR-stimulated with anti-CD3/28 mAbs in the presence of compound as indicated. Cytokine production was determined at 24 h or 48 h following TCR stimulation in cell culture supernatants using commercially available ELISA kits (BD and eBioscience) as recommended by the manufacturer. T cell proliferation and CD25 expression (CD25-PC5 reagent purchased from Beckman Coulter) was determined by flow cytometry (Beckman-Coulter FC500) and analysed with Kaluza Software. For measurement of CD69 expression, isolated CD4 and CD8 T cells were plated in Xvivo medium at […] per in 96 well culture plates and TCR-stimulated with anti-CD3/28 mAbs in the presence of compound. CD69 expression was determined at 24 h following TCR stimulation by flow cytometry (CD4eF450, CD8APCeF780 and CD69-PC7 reagent purchased from eBioscience) and analysed with Kaluza Software.
# (§2) For measurement of CD69 expression, isolated CD4 and CD8 T cells were plated in Xvivo medium at 80000 cells per in 96 well culture plates and TCR-stimulated with anti-CD3/28 mAbs in the presence of compound. CD69 expression was determined at 24 h following TCR stimulation by flow cytometry (CD4eF450, CD8APCeF780 and CD69-PC7 reagent purchased from eBioscience) and analysed with Kaluza Software.
# CD8 T cells = assay: CD69 expression on aCD3/aCD28 stimulated isolated human CD8 T cells (flow cytometry); settings: T-cell, 24 h after TCR stimulation, read-out: Activity Class CD69 (CD8)
# Procedure: as §1, §2
# [1] = tested on: aCD3/aCD28-stimulated human PBMCs; assay: Cytokine production in aCD3/aCD28 stimulated human PBMCs; settings: PBMC, 18 h
# In short: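 Ficoll-isolated human PBMCs at 1e6 cells/mL in X-Vivo15, stimulated with soluble anti-CD3/CD28 (OKT3 and 28.2, 1 μg/mL each) plus compound for 18 h at 37° C. Supernatant cytokines quantified by MSD or HTRF.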
# [2] = enhancement of IFN-γ production, read-out: Activity Class IFN-γ
# [3] = enhancement of IL-2 production, read-out: Activity Class IL-2
EC50 (CD4 T cells) [µM],EC50 (CD8 T cells) [µM],Structure (SMILES),"EC50 [1, 2] [µM]","EC50 [1, 3] [µM]"
< 1.58,< 1.58,"COc1ccc(CN2C(=O)[C@@H](N)CS(=O)(=O)c3cc(F)c(C(=O)NCCCC(F)(F)F)cc32)cc1 [Example 141, (3R)-3-amino-8-fluoro-5-[(4-methoxyphenyl)methyl]-1,1,4-trioxo-N-(4,4,4-trifluorobutyl)-2,3,4,5-tetrahydro-1λ^6,5-benzothiazepine-7-carboxamide]",< 1.58,< 1.58
> 5.01,> 5.01,"N[C@H]1C[S@@+]([O-])c2cc(F)c(C(=O)NCCCC(F)(F)F)cc2N(Cc2ccc(Cl)cc2)C1=O (single isomer, unassigned) [Example 123, hydrochloride]",< 1.58,1.58 to 5.01
< 1.58,< 1.58,"Cl.N[C@H]1CS(=O)(=O)c2cc(F)c(C(=O)N[C@H]3CC3(F)F)cc2N(Cc2ccc(Cl)cc2)C1=O (single isomer, unassigned) [Example 107, hydrochloride]",< 1.58,< 1.58
1.58 to 5.01,1.58 to 5.01,"N[C@H]1CS(=O)(=O)c2cc(F)c(C(=O)NCCC3CCOCC3)cc2N(Cc2ccc(Cl)cc2)C1=O [Example 135, (3R)-3-amino-5-[(4-chlorophenyl)methyl]-8-fluoro-N-[2-(oxan-4-yl)ethyl]-1,1,4-trioxo-2,3,4,5-tetrahydro-1λ^6,5-benzothiazepine-7-carboxamide hydrochloride]",< 1.58,1.58 to 5.01
1.58 to 5.01,1.58 to 5.01,"N[C@H]1CS(=O)(=O)c2ccc(C(=O)N[C@@H]3CC3(F)F)cc2N(Cc2ccc(Cl)cc2)C1=O [Example 158, (3R)-3-amino-5-[(4-chlorophenyl)methyl]-N-[(1R)-2,2-difluorocyclopropyl]-1,1,4-trioxo-2,3,4,5-tetrahydro-1λ^6,5-benzothiazepine-7-carboxamide]",< 1.58,1.58 to 5.01
1.58 to 5.01,1.58 to 5.01,"N#Cc1ccc(CN2C(=O)[C@@H](N)CS(=O)(=O)c3cc(F)c(C(=O)NCCCC(F)(F)F)cc32)cc1 [Example 125, (3R)-3-amino-5-[(4-cyanophenyl)methyl]-8-fluoro-1,1,4-trioxo-N-(4,4,4-trifluorobutyl)-2,3,4,5-tetrahydro-1λ^6,5-benzothiazepine-7-carboxamide hydrochloride]",< 1.58,1.58 to 5.01
1.58 to 5.01,> 5.01,"N[C@H]1CS(=O)(=O)c2cc(F)c(C(=O)NC3CC(F)(F)C3)cc2N(Cc2ccc(F)cc2)C1=O [Example 140, (3R)-3-amino-N-(3,3-difluorocyclobutyl)-8-fluoro-5-[(4-fluorophenyl)methyl]-1,1,4-trioxo-2,3,4,5-tetrahydro-1λ^6,5-benzothiazepine-7-carboxamide hydrochloride]",1.58 to 5.01,1.58 to 5.01
> 5.01,> 5.01,"N[C@H]1CSc2cc(F)c(C(=O)NCc3ccccc3)cc2N(Cc2ccc(F)cc2)C1=O [Example 132, (3R)-3-amino-N-benzyl-8-fluoro-5-[(4-fluorophenyl)methyl]-4-oxo-2,3,4,5-tetrahydro-1,5-benzothiazepine-7-carboxamide hydrochloride]",1.58 to 5.01,> 5.01
< 1.58,< 1.58,"N[C@H]1CS(=O)(=O)c2ccc(C(=O)NC3CC3(F)F)cc2N(Cc2ccc(Br)cc2)C1=O (stereo partly drawn) [Example 180, (3R)-3-amino-5-[(4-bromophenyl)methyl]-N-(2,2-difluorocyclopropyl)-1,1,4-trioxo-2,3,4,5-tetrahydro-1λ^6,5-benzothiazepine-7-carboxamide]",< 1.58,< 1.58
< 1.58,1.58 to 5.01,"N[C@H]1CS(=O)(=O)c2cc(Cl)c(C(=O)N[C@@H]3CC3(F)F)cc2N(Cc2ccc(Cl)cc2)C1=O [Example 175, (3R)-3-amino-8-chloro-5-[(4-chlorophenyl)methyl]-N-[(1R)-2,2-difluorocyclopropyl]-1,1,4-trioxo-2,3,4,5-tetrahydro-1λ^6,5-benzothiazepine-7-carboxamide]",1.58 to 5.01,> 5.01
1.58 to 5.01,> 5.01,"N[C@H]1CS(=O)(=O)c2cc(F)c(C(=O)NCC3CCOCC3)cc2N(Cc2ccc(F)cc2)C1=O [Example 139, (3R)-3-amino-8-fluoro-5-[(4-fluorophenyl)methyl]-N-[(oxan-4-yl)methyl]-1,1,4-trioxo-2,3,4,5-tetrahydro-1λ^6,5-benzothiazepine-7-carboxamide hydrochloride]",1.58 to 5.01,1.58 to 5.01
> 5.01,> 5.01,"COc1ccc(CN2C(=O)[C@@H](N)CS(=O)(=O)c3ccc(C(=O)NCCCC(F)(F)F)cc32)cc1 [Example 150, (3R)-3-amino-5-[(4-methoxyphenyl)methyl]-1,1,4-trioxo-N-(4,4,4-trifluorobutyl)-2,3,4,5-tetrahydro-1λ^6,5-benzothiazepine-7-carboxamide]",1.58 to 5.01,1.58 to 5.01
< 1.58,< 1.58,"N[C@H]1CS(=O)(=O)c2ccc(C(=O)NCCC(F)(F)F)cc2N(Cc2ccc(Cl)cc2)C1=O [Example 155, (3R)-3-amino-5-[(4-chlorophenyl)methyl]-1,1,4-trioxo-N-(3,3,3-trifluoropropyl)-2,3,4,5-tetrahydro-1λ^6,5-benzothiazepine-7-carboxamide]",1.58 to 5.01,1.58 to 5.01
< 1.58,< 1.58,"N[C@H]1CS(=O)(=O)c2ccc(C(=O)N[C@@H]3CCC(F)(F)C3)cc2N(Cc2ccc(Cl)cc2)C1=O [Example 169, (3R)-3-amino-5-[(4-chlorophenyl)methyl]-N-[(1R)-3,3-difluorocyclopentyl]-1,1,4-trioxo-2,3,4,5-tetrahydro-1λ^6,5-benzothiazepine-7-carboxamide]",< 1.58,< 1.58
1.58 to 5.01,< 1.58,"COc1ccc(CNC(=O)c2ccc3c(c2)N(Cc2ccc(OC)cc2)C(=O)[C@@H](N)CS3(=O)=O)cc1 [Example 151, (3R)-3-amino-N,5-bis[(4-methoxyphenyl)methyl]-1,1,4-trioxo-2,3,4,5-tetrahydro-1λ^6,5-benzothiazepine-7-carboxamide]",1.58 to 5.01,1.58 to 5.01
1.58 to 5.01,1.58 to 5.01,"N[C@H]1C[S@+]([O-])c2cc(F)c(C(=O)NCCCC(F)(F)F)cc2N(Cc2ccc(Cl)cc2)C1=O (single isomer, unassigned) [Example 122, hydrochloride]",< 1.58,1.58 to 5.01
< 1.58,< 1.58,"N[C@H]1CS(=O)(=O)c2ccc(C(=O)NC3CC(F)(F)C3)cc2N(Cc2ccc(Cl)cc2)C1=O [Example 145, (3R)-3-amino-5-[(4-chlorophenyl)methyl]-N-(3,3-difluorocyclobutyl)-1,1,4-trioxo-2,3,4,5-tetrahydro-1λ^6,5-benzothiazepine-7-carboxamide]",1.58 to 5.01,1.58 to 5.01
< 1.58,< 1.58,"CCCCNC(=O)c1cc2c(cc1F)S(=O)(=O)C[C@H](N)C(=O)N2Cc1ccc(F)cc1 [Example 133, (3R)-3-amino-N-butyl-8-fluoro-5-[(4-fluorophenyl)methyl]-1,1,4-trioxo-2,3,4,5-tetrahydro-1λ^6,5-benzothiazepine-7-carboxamide hydrochloride]",< 1.58,1.58 to 5.01
< 1.58,< 1.58,"N[C@H]1CS(=O)(=O)c2cc(Cl)c(C(=O)NCCCC(F)(F)F)cc2N(Cc2ccc(Cl)cc2)C1=O [Example 163, (3R)-3-amino-8-chloro-5-[(4-chlorophenyl)methyl]-1,1,4-trioxo-N-(4,4,4-trifluorobutyl)-2,3,4,5-tetrahydro-1λ^6,5-benzothiazepine-7-carboxamide]",< 1.58,1.58 to 5.01
< 1.58,< 1.58,"COc1ccc(CNC(=O)c2cc3c(cc2F)S(=O)(=O)C[C@H](N)C(=O)N3Cc2ccc(Cl)cc2)cc1 [Example 137, (3R)-3-amino-5-[(4-chlorophenyl)methyl]-8-fluoro-N-[(4-methoxyphenyl)methyl]-1,1,4-trioxo-2,3,4,5-tetrahydro-1λ^6,5-benzothiazepine-7-carboxamide hydrochloride]",< 1.58,< 1.58
1.58 to 5.01,> 5.01,"COc1ccc(CN2C(=O)[C@@H](N)CS(=O)(=O)c3cc(F)c(C(=O)NC4CC4(F)F)cc32)cc1 (stereo partly drawn) [Example 143, (3R)-3-amino-N-(2,2-difluorocyclopropyl)-8-fluoro-5-[(4-methoxyphenyl)methyl]-1,1,4-trioxo-2,3,4,5-tetrahydro-1λ^6,5-benzothiazepine-7-carboxamide]",1.58 to 5.01,1.58 to 5.01
